{"source": "patent US6440999B1", "about": "“Intimal thickening inhibitory agent” (Chugai Seiyaku Kabushiki Kaisha, priority 1995, dated 2002)", "key": {"[1]": {"test_system": "A7r5 cells derived from the aorta of a rat", "test": "Inhibition of serum-stimulated proliferation of vascular smooth muscle cells, BrdU uptake (EIA)", "format": "cell-based", "conditions": "for Absorbance (difference between 405 nm and 492 nm), BrdU uptake: n = 3, mean ± SD", "procedure": "In order to assess the inhibitory effect of a compound of the present invention on serum-stimulated pro-liferation of vascular smooth muscle cells in vitro, the compound obtained in Example 36 was tested using A7r5 cells derived from the aorta of a rat (ATCC-CRL-1444).\nUsing DMEM medium containing 10% FBS, the cells were placed on 96-well microtiter plates with 5×10^3 cells/0.2 ml/well and then incubated. The medium was exchanged for 2% FBS-containing DMEM medium on the third day and then for 0.2% FBS-containing DMEM medium on the fourth day from the start of the incubation. After 48-hour incubation in the 0.2% FBS-containing DMEM medium, the medium was removed, 0.1 ml of DMEM medium and the test compound were added, and the cells were stimulated with serum (2% FBS) to proliferate. The test compound was added to the wells in the form of a solution or suspension in ethanol in an amount of 0.5 μl/well to final compound concentrations indicated in Table 1 below and the resultant ethanol concentration of 0.5% in each well. BrdU was pulsed to the wells from the 16th to 38th hours or from the 38th to 64th hours after the stimulation to a final concentration of 10 μM, and the uptake of BrdU into DNA was evaluated as an indication of cell proliferation. The BrdU uptake was measured by means of an EIA kit containing an anti-BrdU antibody (5-Bromo-2′-deoxy-uridine Labeling and Detection Kit III, available from Bohringer Mannheim Biochemica)."}, "[2]": {"test_system": "rabbit balloon injury models", "test": "In vivo effect in intimal thickening model (1), rabbit balloon injury", "procedure": "In order to assess the inhibitory effect of the compound of the present invention on intimal thickening in vivo, the compound of Example 36 was tested using rabbit balloon injury models.\n(§1) Cholesterol-fed rabbits in groups of eight (JW: CSK male, 11-week-old) were used to prepare rabbit balloon injury models. Briefly, rabbits were fed with a high cholesterol diet (cholesterol content: 1%) for 2 weeks before balloon treatment. The animals were balloon-treated with a balloon catheter (3 French, available from Baxter) under anesthesia to peel the aortic intima 5 times. The animals were orally administered with the compound which was suspended in a 1% carboxymethyl cellulose (CMC) solution (200 mg/kg). On the other hand, control animals were orally administered with a 1% CMC solution without the compound. The administrations were performed once a day from 1 week before the balloon treatment until the day before the dissection for evaluation.\nAfter four weeks from the balloon treatment, specimens were taken from the aorta, stained with Elastica van Geison, and analyzed under an optical microscope. The image was processed to measure the thickness and area of the thickened intima. Averages of the thickness and area were obtained for each individual animal. The animals which died due to the operation and those having a serum cholesterol level of 3500 mg/dl or higher were excluded from the measurement. The number of animals used for the evaluation was 5 or 6 per group."}, "[3]": {"test_system": "A7r5 cells derived from the aorta of a rat", "test": "Inhibition of serum- or PDGF-stimulated proliferation of vascular smooth muscle cells, [3H]-thymidine uptake", "format": "cell-based", "procedure": "In order to assess the inhibitory effect of a compound of the present invention on serum- or PDGF-stimulated proliferation of vascular smooth muscle cells in vitro, the compound obtained in Example 36 was tested using A7r5 cells derived from the aorta of a rat (ATCC-CRL-1444). Further, the effect was compared with that of α-tocopherol which was reported to have an inhibitory effect on proliferation of vascular smooth muscle cells (see J. Biol. Chem., 266, pp. 6188-6194 (1991)).\nUsing DMEM medium containing 10% FBS, the cells were placed on 96-well microtiter plates with 5×10^3 cells/0.2 ml/well and then incubated. The medium was exchanged for 2% FBS-containing DMEM medium on the third day and then for 0.2% FBS-containing DMEM medium on the fourth day from the start of the incubation. After 48-hour incubation in the 0.2% FBS-containing DMEM medium, the medium was removed, 0.2 ml of DMEM medium and the test compound were added, and the cells were stimulated with serum (2% FBS) or PDGF (PDGF-BB: human origin, available from Becton Dickinson Labware) (4 ng/ml) to proliferate. The test compound was added to the wells in the form of a solution or suspension in ethanol in amount of 1 μl well to final compound concentrations indicated in Table 2 below and the resultant ethanol concentration of 0.5% in each well. Eight hours after the stimulation, hydroxyurea was added to a final concentration of 1.5 mM to synchronize the cell cycle strictly. After additional 14-hour incubation, the medium containing hydroxyurea was removed and the cells were washed, and DMEM medium, the test compound and the proliferation stimulator were added thereto again. Further, [^3H]-thymidine (1 μCi/well; […]; available from NEN Research) was added. The [^3H]-thymidine uptake in 5 hours was measured as an indication of cell proliferation."}, "[4]": {"test_system": "rabbit balloon injury models", "test": "In vivo effect in intimal thickening model (2), rabbit balloon injury", "procedure": "In order to assess the inhibitory effect of the compound of the present invention on intimal thickening in vivo, the compound of Example 36 was tested using rabbit balloon injury models that were different from those used in Test Example 4 in week-age. Further, the effect was compared with that of Probucol which was reported to have an inhibitory effect on intimal thickening in balloon injury models (see Proc. Natl. Acad. Sci., U.S.A., 89, pp 11312-11316 (1992)).\nas §1, with “seven” for “eight”, “15-week-old)” for “11-week-old)”, “(4” for “(3”, “CMC” for “carboxymethyl cellulose (CMC)”, “evaluation. In order to evaluate the degree of balloon injury, a balloon-nontreated group (3 animals) was prepared.” for “evaluation.”\nAfter four weeks from the balloon treatment, specimens were taken from the aorta, stained with Elastica van Geison, and analyzed under an optical microscope. The image was processed to measure the thickness and area of the thickened intima. Averages of the thickness and area were obtained for each individual animal. The animals which died after the operation and those having a serum cholesterol level of 3500 mg/dl or higher were excluded from the measurement. The number of animals used for the evaluation was 4 or 5 per group."}, "[5]": {"conditions": "both intimal thickness and intimal area, 200 mg/kg oral"}}, "note": "Marks after values point to notes of the source that are not given here."}
{"compound": "CCCCCC1(CCCCC)Cc2c(cc(C(C)(C)C)c(O)c2C(C)(C)C)O1", "note": "[Example 36, 4,6-Di-t-butyl-2,2-di-n-pentyl-5-hydroxy-2,3-dihydrobenzofuran]", "values": [{"measurement": "Absorbance (difference between 405 nm and 492 nm), BrdU uptake", "setting": "[1]; 10 μM, BrdU pulse 16-38 hrs. after 2% FBS stimulation, control 0.433 ± 0.008", "value": "0.397 ± 0.054"}, {"measurement": "Absorbance (difference between 405 nm and 492 nm), BrdU uptake", "setting": "[1]; 10 μM, BrdU pulse 38-64 hrs. after 2% FBS stimulation, control 0.436 ± 0.060", "value": "0.195 ± 0.017"}, {"measurement": "Absorbance (difference between 405 nm and 492 nm), BrdU uptake", "setting": "[1]; 30 μM, BrdU pulse 16-38 hrs. after 2% FBS stimulation, control 0.433 ± 0.008", "value": "0.362 ± 0.026"}, {"measurement": "Absorbance (difference between 405 nm and 492 nm), BrdU uptake", "setting": "[1]; 30 μM, BrdU pulse 38-64 hrs. after 2% FBS stimulation, control 0.436 ± 0.060", "value": "0.085 ± 0.006"}, {"measurement": "Absorbance (difference between 405 nm and 492 nm), BrdU uptake", "setting": "[1]; 100 μM, BrdU pulse 16-38 hrs. after 2% FBS stimulation, control 0.433 ± 0.008", "value": "0.290 ± 0.031"}, {"measurement": "Absorbance (difference between 405 nm and 492 nm), BrdU uptake", "setting": "[1]; 100 μM, BrdU pulse 38-64 hrs. after 2% FBS stimulation, control 0.436 ± 0.060", "value": "0.049 ± 0.006"}, {"measurement": "Inhibition of serum-stimulated proliferation of vascular smooth muscle cells (in words)", "setting": "[1]; BrdU uptake, 10-100 μM", "value": "inhibits the serum-stimulated proliferation of vascular smooth muscle cells dose-dependently"}, {"measurement": "Inhibitory effect on intimal thickening (in words)", "setting": "[2]; [5]", "value": "significant inhibitory effect on intimal thickening"}, {"measurement": "Area of Intima", "setting": "[2]; cholesterol-fed rabbits, 11-week-old, 200 mg/kg oral once a day, four weeks after balloon treatment, control 0.26 ± 0.03, mean ± SD", "value": "0.11 ± 0.08** mm^2"}, {"measurement": "Thickness of Intima", "setting": "[2]; cholesterol-fed rabbits, 11-week-old, 200 mg/kg oral once a day, four weeks after balloon treatment, control 103 ± 12, mean ± SD", "value": "45 ± 31", "unit": "μm"}, {"measurement": "Count by Liquid Scintillation Counter, FBS Stimulation ([3H]-thymidine uptake)", "setting": "[3]; 100 μM, 2% FBS, uptake in 5 hours, control 42789 ± 1063, n = 3, mean ± SD", "value": "14147 ± 1372", "unit": "CPM"}, {"measurement": "Count by Liquid Scintillation Counter, PDGF Stimulation ([3H]-thymidine uptake)", "setting": "[3]; 100 μM, PDGF-BB 4 ng/ml, uptake in 5 hours, control 24517 ± 2370, n = 3, mean ± SD", "value": "7881 ± 356", "unit": "CPM"}, {"measurement": "Inhibitory effect compared with α-tocopherol (in words)", "setting": "[3]; [3H]-thymidine uptake", "value": "higher than that of α-tocopherol"}, {"measurement": "Inhibition of serum- or PDGF-stimulated proliferation of vascular smooth muscle cells (in words)", "setting": "[3]; [3H]-thymidine uptake, 100 μM", "value": "inhibits serum- or PDGF-stimulated proliferation of vascular smooth muscle cells"}, {"measurement": "Inhibitory effect on intimal thickening compared with Probucol (in words)", "setting": "[4]; 200 mg/kg oral", "value": "higher than that of Probucol"}, {"measurement": "Inhibitory effect on intimal thickening (in words)", "setting": "[4]; [5]", "value": "significant inhibitory effect on intimal thickening"}, {"measurement": "Area of Intima", "setting": "[4]; cholesterol-fed rabbits, 15-week-old, 200 mg/kg oral once a day, four weeks after balloon treatment, control 1.32 ± 0.22, mean ± SD", "value": "0.81 ± 0.22", "unit": "mm²"}, {"measurement": "Thickness of Intima", "setting": "[4]; cholesterol-fed rabbits, 15-week-old, 200 mg/kg oral once a day, four weeks after balloon treatment, control 119 ± 19, mean ± SD", "value": "76 ± 16", "unit": "μm"}]}
